“And” between values parts separate entries of the source, which are not always exact repeats. Equal entries are not always repeated. Toxic doses and inconclusive results are not listed. Peptide text beside a SMILES is read from it. * marks the point of attachment. Cbz = O=C(OCc1ccccc1)*
Tested on: P388 leukemia ip, CD2F1 mice, survival T/C
Test: NCI In Vivo Anticancer Drug Screen. Data for tumor model P388 Leukemia (intraperitoneal) in CD2F1 (CDF1) mice
Conditions: endpoint: median survival time, higher = longer survival
Outline: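 Mice carrying the transplanted tumor received test compound or vehicle. Survival was recorded in each group, and the value is the treated-group measurement divided by that of the vehicle-treated control group.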

[1] = dose: 6.25 mg/kg/injection, schedule: Q01DX009 (ip), vehicle: saline with Tween-80
[2] = dose: 12.5 mg/kg/injection, schedule: Q01DX009 (ip), vehicle: saline with Tween-80
[3] = dose: 25.0 mg/kg/injection, schedule: Q01DX009 (ip), vehicle: saline with Tween-80
[4] = dose: 50.0 mg/kg/injection, schedule: Q01DX009 (ip), vehicle: saline with Tween-80
[5] = dose: 100.0 mg/kg/injection, schedule: Q01DX009 (ip), vehicle: saline with Tween-80
[6] = dose: 200.0 mg/kg/injection, schedule: Q01DX009 (ip), vehicle: saline
[7] = dose: 200.0 mg/kg/injection, schedule: Q01DX009 (ip), vehicle: saline with Tween-80
[8] = dose: 60.0 mg/kg/injection, schedule: Q01DX005 (ip), vehicle: saline with Tween-80
[9] = dose: 120.0 mg/kg/injection, schedule: Q01DX005 (ip), vehicle: saline with Tween-80
[10] = dose: 240.0 mg/kg/injection, schedule: Q01DX005 (ip), vehicle: saline with Tween-80
[11] = dose: 50.0 mg/kg/injection, schedule: Q01DX009 (ip), vehicle: Klucel (hydroxypropylcellulose) (HPC)
[12] = dose: 100.0 mg/kg/injection, schedule: Q01DX009 (ip), vehicle: Klucel (hydroxypropylcellulose) (HPC)
[13] = dose: 50.0 mg/kg/injection, schedule: Q01DX005 (ip), vehicle: Klucel (hydroxypropylcellulose) (HPC)
[14] = dose: 100.0 mg/kg/injection, schedule: Q01DX005 (ip), vehicle: Klucel (hydroxypropylcellulose) (HPC)
[15] = dose: 200.0 mg/kg/injection, schedule: Q01DX005 (ip), vehicle: Klucel (hydroxypropylcellulose) (HPC)
[16] = dose: 30.0 mg/kg/injection, schedule: Q01DX005 (ip), vehicle: saline with Tween-80
[17] = dose: 200.0 mg/kg/injection, schedule: Q01DX009 (ip), vehicle: Klucel (hydroxypropylcellulose) (HPC)
[18] = dose: 200.0 mg/kg/injection, schedule: Q01DX001 (ip), vehicle: Klucel (hydroxypropylcellulose) (HPC)
[19] = dose: 100.0 mg/kg/injection, schedule: Q01DX001 (ip), vehicle: saline with Tween-80
[20] = dose: 200.0 mg/kg/injection, schedule: Q01DX001 (ip), vehicle: saline with Tween-80

CCOC(=O)N(C)C(C)=O was tested, and the T/C [1] was 100 % of control, the T/C [2] was 97 % of control and the T/C [3] was 106 % of control. For the same compound, the T/C [4] was 104 % of control, the T/C [5] was 96 % of control and the T/C [6] was 103 % of control.

With COCC1=C(C)CC(CC(=O)OC)C1=O (stereo not drawn) the T/C (dose: 60.0 mg/kg/injection, schedule: Q01DX005 (ip), vehicle: saline) was 98 % of control, the T/C (dose: 120.0 mg/kg/injection, schedule: Q01DX005 (ip), vehicle: saline) was 98 % of control and the T/C (dose: 240.0 mg/kg/injection, schedule: Q01DX005 (ip), vehicle: saline) was 101 % of control.

In the case of CC(C)(C)NC=C(C#N)C#N, the T/C [4] is reported as 86 % of control.

For C/C(=N\NC(N)=O)C1=C(O)C(C(C)C)NC1=O (stereo not drawn), the T/C [4] was 93 % of control, the T/C [5] was 99 % of control and the T/C [7] was 92 % of control. For the same compound, the T/C (dose: 400.0 mg/kg/injection, schedule: Q01DX009 (ip), vehicle: saline with Tween-80) was 99 % of control.

O=C(Nc1cccc2nsnc12)c1ccc(C(=O)Nc2cccc3nsnc23)cc1 was tested, and the T/C (dose: 0.46 mg/kg/injection, schedule: Q01DX005 (ip), vehicle: Klucel (hydroxypropylcellulose) (HPC)) was 97 % of control, the T/C (dose: 0.93 mg/kg/injection, schedule: Q01DX005 (ip), vehicle: Klucel (hydroxypropylcellulose) (HPC)) was 96 % of control and the T/C (dose: 1.87 mg/kg/injection, schedule: Q01DX005 (ip), vehicle: Klucel (hydroxypropylcellulose) (HPC)) was 98 % of control. The T/C (dose: 30.0 mg/kg/injection, schedule: Q01DX005 (ip), vehicle: Klucel (hydroxypropylcellulose) (HPC)) was 86 % of control and the T/C (dose: 240.0 mg/kg/injection, schedule: Q01DX005 (ip), vehicle: Klucel (hydroxypropylcellulose) (HPC)) was 98 % of control.

COCc1ccccc1-n1nccc1S(C)=O (stereo not drawn) was tested, and the T/C [8] was 106 % of control, the T/C [9] was 98 % of control and the T/C [10] was 106 % of control.

In the case of CCOC(=O)c1cccc(C(=O)OCC)c1, the T/C [4] is reported as 99 % of control, the T/C [5] is reported as 106 % of control and the T/C [7] is reported as 108 % of control.

In the case of CN1C(=O)Cn2c(n[nH]c(=O)c2=O)-c2cc(Cl)ccc21, the T/C [11] is reported as 95 % of control and the T/C [12] is reported as 86 % of control.

In the case of Nc1cc(-c2ccc(Cl)cc2)nn1-c1nnc2c(n1)[nH]c1ccccc12, the T/C (dose: 100.0 mg/kg/injection, schedule: Q04DX002 (ip), vehicle: saline with Tween-80) is reported as 92 % of control, the T/C (dose: 200.0 mg/kg/injection, schedule: Q04DX002 (ip), vehicle: saline with Tween-80) is reported as 94 % of control and the T/C (dose: 400.0 mg/kg/injection, schedule: Q04DX002 (ip), vehicle: saline with Tween-80) is reported as 99 % of control.

In the case of COc1cc2c(cc1OC)C(c1c(Cl)cccc1Cl)=NCC2, the T/C [13] is reported as 96 % of control, the T/C [14] is reported as 105 % of control and the T/C [15] is reported as 110 % of control.

With CNC(=O)OCc1ncn(-c2ccccc2)c1COC(=O)NC the T/C (dose: 12.5 mg/kg/injection, schedule: Q01DX005 (ip), vehicle: distilled water + Tween-80) was 99 % of control, the T/C (dose: 25.0 mg/kg/injection, schedule: Q01DX005 (ip), vehicle: distilled water + Tween-80) was 95 % of control and the T/C (dose: 50.0 mg/kg/injection, schedule: Q01DX005 (ip), vehicle: distilled water + Tween-80) was 101 % of control. The T/C (dose: 100.0 mg/kg/injection, schedule: Q01DX005 (ip), vehicle: distilled water + Tween-80) was 101 % of control and the T/C (dose: 200.0 mg/kg/injection, schedule: Q01DX005 (ip), vehicle: distilled water + Tween-80) was 99 % of control.

For CC(O)C(NC(=O)OCc1ccccc1)C(=O)NC(Cc1ccccc1)C(=O)O (stereo not drawn) (Cbz-Thr-Phe-OH; configuration not given here), the T/C [13] was 100 % of control, the T/C [14] was 101 % of control and the T/C [15] was 101 % of control.

CCN(CC)[Si](C)(C)N(CC)CC was tested, and the T/C [16] was 100 % of control, the T/C [8] was 100 % of control and the T/C [9] was 104 % of control.

CN=C(NC)c1ccc(NC(=O)/C=C\c2ccc(C(=O)Nc3ccc(C(=NC)NC)cc3)cc2)cc1 was tested, and the T/C (dose: 3.13 mg/kg/injection, schedule: Q01DX009 (ip), vehicle: saline with Tween-80) was 172 % of control, the T/C (dose: 4.4 mg/kg/injection, schedule: Q04DX003 (ip), vehicle: saline with Tween-80) was 150 % of control and the T/C [1] was 113 % of control. For the same compound, the T/C (dose: 10.0 mg/kg/injection, schedule: Q04DX003 (ip), vehicle: saline with Tween-80) was 155 % of control, the T/C [2] was 95 % of control and the T/C (dose: 15.0 mg/kg/injection, schedule: Q04DX003 (ip), vehicle: saline with Tween-80) was 155 % of control.

COc1c(C)[nH]ccc1=O was tested, and the T/C (dose: 12.5 mg/kg/injection, schedule: Q01DX009 (ip), vehicle: saline) was 102 % of control and 105 % of control, the T/C (dose: 25.0 mg/kg/injection, schedule: Q01DX009 (ip), vehicle: saline) was 101 % of control and 103 % of control and the T/C (dose: 50.0 mg/kg/injection, schedule: Q01DX009 (ip), vehicle: saline) was 99 % of control and 102 % of control. The T/C (dose: 100.0 mg/kg/injection, schedule: Q01DX009 (ip), vehicle: saline) was 99 % of control and 105 % of control, the T/C [6] was 104 % of control and 107 % of control and the T/C (dose: 400.0 mg/kg/injection, schedule: Q01DX009 (ip), vehicle: saline) was 104 % of control and 106 % of control.

In the case of N=C(N)c1ccc(/C=C/c2cc3ccc(C(=N)N)cc3[nH]2)cc1, the T/C (dose: 6.25 mg/kg/injection, schedule: Q04DX003 (ip), vehicle: saline) is reported as 113 % of control.

With Cc1cc2ccccc2nc1Cl the T/C (dose: 60.0 mg/kg/injection, schedule: Q01DX005 (ip), vehicle: saline + Tween-80 + alcohol) was 100 % of control, the T/C (dose: 120.0 mg/kg/injection, schedule: Q01DX005 (ip), vehicle: saline + Tween-80 + alcohol) was 104 % of control and the T/C (dose: 240.0 mg/kg/injection, schedule: Q01DX005 (ip), vehicle: saline + Tween-80 + alcohol) was 104 % of control.

In the case of O=S(=O)(NCCNS(=O)(=O)c1ccccc1)c1ccccc1, the T/C (dose: 25.0 mg/kg/injection, schedule: Q01DX009 (ip), vehicle: Klucel (hydroxypropylcellulose) (HPC)) is reported as 90 % of control, the T/C [11] is reported as 100 % of control and the T/C [12] is reported as 90 % of control. The T/C [17] was 91 % of control.

c1ccc(-c2ccc(-c3cn4c(n3)SCC4)cc2)cc1 was tested, and the T/C [18] was 91 % of control.

In the case of CCC1(CC(=O)O)OCCc2c1[nH]c1c(C)c(F)ccc21 (stereo not drawn), the T/C [11] is reported as 95 % of control, the T/C [12] is reported as 96 % of control and the T/C [17] is reported as 104 % of control.

CC1NC(C)N2C(C)N12 (stereo not drawn) was tested, and the T/C (dose: 25.0 mg/kg/injection, schedule: Q01DX001 (ip), vehicle: saline) was 105 % of control, the T/C (dose: 50.0 mg/kg/injection, schedule: Q01DX001 (ip), vehicle: saline) was 104 % of control and the T/C (dose: 100.0 mg/kg/injection, schedule: Q01DX001 (ip), vehicle: saline) was 104 % of control.

Nc1nnc(CCCCCCCc2nnc(N)o2)o1 was tested, and the T/C [8] was 104 % of control, the T/C [9] was 99 % of control and the T/C [10] was 105 % of control.

With CCCCCCCCOC(=O)COc1ccc(Cl)cc1Cl the T/C (dose: 50.0 mg/kg/injection, schedule: Q01DX001 (ip), vehicle: Klucel (hydroxypropylcellulose) (HPC)) was 113 % of control, the T/C (dose: 50.0 mg/kg/injection, schedule: Q01DX001 (ip), vehicle: saline with Tween-80) was 98 % of control and the T/C (dose: 100.0 mg/kg/injection, schedule: Q01DX001 (ip), vehicle: Klucel (hydroxypropylcellulose) (HPC)) was 109 % of control. For the same compound, the T/C [19] was 100 % of control, the T/C [18] was 122 % of control and the T/C [20] was 105 % of control.

With Cc1cccc(Nc2nc(C)nc3[nH]cc(C)c23)c1 the T/C [13] was 92 % of control and the T/C [14] was 90 % of control.

In the case of CN(C)CCOc1ccc2c(c1)CC/C(=C\c1ncc([N+](=O)[O-])n1C)C2=O, the T/C [2] is reported as 108 % of control, the T/C [3] is reported as 108 % of control and the T/C [4] is reported as 109 % of control and 118 % of control.

In the case of ClC(Cl)(Cl)C(=NN=C(C(Cl)(Cl)Cl)C(Cl)(Cl)Cl)C(Cl)(Cl)Cl, the T/C (dose: 15.0 mg/kg/injection, schedule: Q01DX005 (ip), vehicle: saline with Tween-80) is reported as 106 % of control, the T/C [16] is reported as 103 % of control and the T/C [8] is reported as 100 % of control and 109 % of control.

CCCCCCCCCCCCCCCC[N+]1(CC)CCCCCC1 was tested, and the T/C (dose: 0.04 mg/kg/injection, schedule: Q01DX009 (ip), vehicle: saline) was 110 % of control, the T/C (dose: 0.09 mg/kg/injection, schedule: Q01DX009 (ip), vehicle: saline) was 103 % of control and 88 % of control and the T/C (dose: 0.19 mg/kg/injection, schedule: Q01DX009 (ip), vehicle: saline) was 89 % of control.

CC1=NNB(O)c2c1sc(Br)c2Br was tested, and the T/C [19] was 100 % of control and the T/C [20] was 95 % of control.
